# Source: the supplement of paper PMC11061612
# Experiments:
# AZD2811 = compound: CCN(CCO)CCCOc1ccc2c(Nc3cc(CC(=O)Nc4cccc(F)c4)[nH]n3)ncnc2c1 [AZD2811]; conditions: max 1 µM
# In short: (§1)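 Viability was measured with CellTiter-Glo 2.0 luminescence after 72 hours of dosing at a final DMSO of typically 0.2%, and scaled between blank-well and DMSO-well means. Beforehand, cancer cell lines sat 24 hours at 37°C and 5% CO2 in 1536-well plates in 7.5 μl DMEM/F12 or RPMI with 10% FBS. A non-linear mixed effects model fitted two-parameter logistic curves to the dose responses. The single-agent IC50 comes from these fits.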
# SN-38 = compound: CCc1c2c(nc3ccc(O)cc13)-c1cc3c(c(=O)n1C2)COC(=O)[C@]3(O)CC [SN-38]; conditions: max 0.3 µM
# In short: as §1
# AZD5991 = compound: Cc1c2c(nn1C)CSCc1cc(n(C)n1)CSc1cc(c3ccccc3c1)OCCCc1c(C(=O)O)n(C)c3c-2c(Cl)ccc13 [AZD5991]; conditions: max 1 µM
# In short: as §1
# Gefitinib = compound: COc1cc2ncnc(Nc3ccc(F)c(Cl)c3)c2cc1OCCCN1CCOCC1 [Gefitinib]; conditions: max 10 µM
# In short: as §1
# Lapatinib = compound: CS(=O)(=O)CCNCc1ccc(-c2ccc3ncnc(Nc4ccc(OCc5cccc(F)c5)c(Cl)c4)c3c2)o1 [Lapatinib]; conditions: max 10 µM
# In short: as §1
# AZD5153 = compound: COc1nnc2ccc(N3CCC(c4ccc(OCCN5CCN(C)C(=O)[C@H]5C)cc4)CC3)nn12 [AZD5153]; conditions: max 1 µM
# In short: as §1
# Carboplatin = compound: C1CC(C1)(C(=O)[O-])C(=O)[O-].N.N.[Pt+2] [Carboplatin]; conditions: max 10 µM
# In short: as §1
# AZD4320 = compound: CN(CC[C@H](CSC1=CC=CC=C1)NC2=C(C=C(C=C2)S(=O)(=O)NC(=O)C3=CC=C(C=C3)N4CCC(CC4)[C@H](C5=CC=CC=C5C6=CC=C(C=C6)Cl)O)S(=O)(=O)C(F)(F)F)CCO [AZD4320]; conditions: max 1 µM
# In short: as §1
# [1] = compound: O=C(Nc1ccc2[nH]nc(-c3ccncc3)c2c1)[C@@H]1CCN(CC(=O)N2CCN(c3ccc(-c4ncccn4)cc3)CC2)C1; conditions: max 5 µM
# In short: as §1
# Etoposide = compound: COc1cc([C@@H]2c3cc4c(cc3[C@@H](O[C@@H]3O[C@@H]5CO[C@@H](C)O[C@H]5[C@H](O)[C@H]3O)[C@H]3COC(=O)[C@H]23)OCO4)cc(OC)c1O [Etoposide]; conditions: max 10 µM
# In short: as §1
# 5-Fluorouracil = compound: O=c1[nH]cc(F)c(=O)[nH]1 [5-Fluorouracil]; conditions: max 20 µM
# In short: as §1
# Prexasertib = compound: COc1cccc(OCCCN)c1-c1cc(Nc2cnc(C#N)cn2)n[nH]1 [Prexasertib]; conditions: max 1 µM
# In short: as §1
# Crizotinib = compound: C[C@@H](Oc1cc(-c2cnn(C3CCNCC3)c2)cnc1N)c1c(Cl)ccc(F)c1Cl [Crizotinib]; conditions: max 10 µM
# In short: as §1
# Paclitaxel = compound: CC(=O)O[C@H]1C(=O)[C@@]2(C)[C@H]([C@H](OC(=O)c3ccccc3)[C@]3(O)C[C@H](OC(=O)[C@H](O)[C@@H](NC(=O)c4ccccc4)c4ccccc4)C(C)=C1C3(C)C)[C@]1(OC(C)=O)CO[C@@H]1C[C@@H]2O [Paclitaxel]; conditions: max 3 µM
# In short: as §1
# Gemcitabine = compound: Nc1ccn([C@@H]2O[C@H](CO)[C@@H](O)C2(F)F)c(=O)n1 [Gemcitabine]; conditions: max 0.3 µM
# In short: as §1
# AZD5363 = compound: C1CN(CCC1(C(=O)N[C@@H](CCO)C2=CC=C(C=C2)Cl)N)C3=NC=NC4=C3C=CN4 [AZD5363]; conditions: max 10 µM
# In short: as §1
# AZD7648 = compound: Cc1cc2ncnn2cc1Nc1ncc2c(n1)n(C1CCOCC1)c(=O)n2C [AZD7648]; conditions: max 10 µM
# In short: as §1
# Alisertib = compound: COc1cc(Nc2ncc3c(n2)-c2ccc(Cl)cc2C(c2c(F)cccc2OC)=NC3)ccc1C(=O)O [Alisertib]; conditions: max 10 µM
# In short: as §1
# Selumetinib = compound: Cn1cnc2c(F)c(Nc3ccc(Br)cc3Cl)c(C(=O)NOCCO)cc21 [Selumetinib]; conditions: max 10 µM
# In short: as §1
# AZD1390 = compound: CC(C)n1c(=O)n(C)c2cnc3cc(F)c(-c4ccc(OCCCN5CCCCC5)nc4)cc3c21 [AZD1390]; conditions: max 0.3 µM
# In short: as §1
# Savolitinib = compound: C[C@@H](c1ccc2nccn2c1)n1nnc2ncc(-c3cnn(C)c3)nc21 [Savolitinib]; conditions: max 1 µM
# In short: as §1
# AZD1775 = compound: C=CCn1c(=O)c2cnc(Nc3ccc(N4CCN(C)CC4)cc3)nc2n1-c1cccc(C(C)(C)O)n1 [AZD1775]; conditions: max 3 µM
# In short: as §1
# Doxorubicin = compound: COc1cccc2c1C(=O)c1c(O)c3c(c(O)c1C2=O)C[C@@](O)(C(=O)CO)C[C@@H]3O[C@H]1C[C@H](N)[C@H](O)[C@H](C)O1 [Doxorubicin]; conditions: max 1 µM
# In short: as §1
# AZD0156 = compound: CN(C)CCCOc1ccc(-c2ccc3ncc4c(c3c2)n(C2CCOCC2)c(=O)n4C)cn1 [AZD0156]; conditions: max 3 µM
# In short: as §1
# AZD8186 = compound: C[C@@H](Nc1cc(F)cc(F)c1)c1cc(C(=O)N(C)C)cc2c(=O)cc(N3CCOCC3)oc12 [AZD8186]; conditions: max 10 µM
# In short: as §1
# Trametinib = compound: CC(=O)Nc1cccc(-n2c(=O)n(C3CC3)c(=O)c3c(Nc4ccc(I)cc4F)n(C)c(=O)c(C)c32)c1 [Trametinib]; conditions: max 1 µM
# In short: as §1
# SG3199 = compound: CC1=CN2[C@@H](C1)C=NC3=CC(=C(C=C3C2=O)OC)OCCCCCOC4=C(C=C5C(=C4)N=C[C@@H]6CC(=CN6C5=O)C)OC [SG3199]; conditions: max 0.001 µM
# In short: as §1
# Palbociclib = compound: CC(=O)c1c(C)c2cnc(Nc3ccc(N4CCNCC4)cn3)nc2n(C2CCCC2)c1=O [Palbociclib]; conditions: max 10 µM
# In short: as §1
# Venetoclax = compound: CC1(C)CCC(CN2CCN(c3ccc(C(=O)NS(=O)(=O)c4ccc(NCC5CCOCC5)c([N+](=O)[O-])c4)c(Oc4cnc5[nH]ccc5c4)c3)CC2)=C(c2ccc(Cl)cc2)C1 [Venetoclax]; conditions: max 1 µM
# In short: as §1
# Dasatinib = compound: CC1=C(C(=CC=C1)Cl)NC(=O)C2=CN=C(S2)NC3=CC(=NC(=N3)C)N4CCN(CC4)CCO [Dasatinib]; conditions: max 2 µM
# In short: as §1
# Olaparib = compound: O=C(c1cc(Cc2n[nH]c(=O)c3ccccc23)ccc1F)N1CCN(C(=O)C2CC2)CC1 [Olaparib]; conditions: max 10 µM
# In short: as §1
# Taselisib = compound: Cc1nc(-c2cn3c(n2)-c2ccc(-c4cnn(C(C)(C)C(N)=O)c4)cc2OCC3)n(C(C)C)n1 [Taselisib]; conditions: max 10 µM
# In short: as §1
# SRA737 = compound: N#Cc1cnc(Nc2cc(NC[C@H]3CNCCO3)c(C(F)(F)F)cn2)cn1 [SRA737]; conditions: max 10 µM
# In short: as §1
# AZD6738 = compound: C[C@@H]1COCCN1C2=NC(=NC(=C2)C3(CC3)[S@](=N)(=O)C)C4=C5C=CNC5=NC=C4 [AZD6738]; conditions: max 10 µM
# In short: as §1
# MK-2206 = compound: NC1(c2ccc(-c3nc4ccn5c(=O)[nH]nc5c4cc3-c3ccccc3)cc2)CCC1 [MK-2206]; conditions: max 10 µM
# In short: as §1
Cell Line,"IC50, cell viability 72 h (AZD2811) [µM]","IC50, cell viability 72 h (SN-38) [µM]","IC50, cell viability 72 h (AZD5991) [µM]","IC50, cell viability 72 h (Gefitinib) [µM]","IC50, cell viability 72 h (Lapatinib) [µM]","IC50, cell viability 72 h (AZD5153) [µM]","IC50, cell viability 72 h (Carboplatin) [µM]","IC50, cell viability 72 h (AZD4320) [µM]","IC50, cell viability 72 h [1] [µM]","IC50, cell viability 72 h (Etoposide) [µM]","IC50, cell viability 72 h (5-Fluorouracil) [µM]","IC50, cell viability 72 h (Prexasertib) [µM]","IC50, cell viability 72 h (Crizotinib) [µM]","IC50, cell viability 72 h (Paclitaxel) [µM]","IC50, cell viability 72 h (Gemcitabine) [µM]","IC50, cell viability 72 h (AZD5363) [µM]","IC50, cell viability 72 h (AZD7648) [µM]","IC50, cell viability 72 h (Alisertib) [µM]","IC50, cell viability 72 h (Selumetinib) [µM]","IC50, cell viability 72 h (AZD1390) [µM]","IC50, cell viability 72 h (Savolitinib) [µM]","IC50, cell viability 72 h (AZD1775) [µM]","IC50, cell viability 72 h (Doxorubicin) [µM]","IC50, cell viability 72 h (AZD0156) [µM]","IC50, cell viability 72 h (AZD8186) [µM]","IC50, cell viability 72 h (Trametinib) [µM]","IC50, cell viability 72 h (SG3199) [µM]","IC50, cell viability 72 h (Palbociclib) [µM]","IC50, cell viability 72 h (Venetoclax) [µM]","IC50, cell viability 72 h (Dasatinib) [µM]","IC50, cell viability 72 h (Olaparib) [µM]","IC50, cell viability 72 h (Taselisib) [µM]","IC50, cell viability 72 h (SRA737) [µM]","IC50, cell viability 72 h (AZD6738) [µM]","IC50, cell viability 72 h (MK-2206) [µM]"
SW1710 (Bladder Carcinoma),> 1,> 0.3,> 1,> 10,> 10,> 1,> 10,> 1,> 5,> 10,> 20,0.0864,> 10,0.0151,> 0.3,> 10,> 10,> 10,> 10,> 0.3,> 1,> 3,> 1,> 3,> 10,> 1,> 0.001,> 10,> 1,0.19,> 10,> 10,> 10,> 10,> 10
TGBC1TKB (Biliary Tract Carcinoma),> 1,> 0.3,> 1,> 10,> 10,> 1,> 10,> 1,> 5,> 10,> 20,> 1,> 10,0.969,> 0.3,> 10,> 10,> 10,> 10,> 0.3,> 1,> 3,> 1,> 3,> 10,> 1,> 0.001,> 10,> 1,> 2,> 10,> 10,> 10,> 10,> 10
WSU-NHL (B-Cell Non-Hodgkin's Lymphoma),0.134,0.00241,0.321,> 10,9.55,0.0459,> 10,0.0814,> 5,0.16,5.46,0.0152,4.52,< 0.003,0.00525,0.809,> 10,0.0736,> 10,> 0.3,> 1,0.41,0.0142,> 3,0.397,> 1,> 0.001,1.28,0.0642,0.0126,7.07,0.0705,2.31,0.998,0.543
YAPC (Pancreatic Carcinoma),> 1,0.113,> 1,> 10,> 10,> 1,> 10,> 1,> 5,> 10,> 20,0.641,> 10,> 3,0.212,> 10,> 10,> 10,> 10,> 0.3,> 1,> 3,> 1,> 3,> 10,> 1,> 0.001,> 10,> 1,> 2,> 10,> 10,> 10,> 10,> 10
